# Key:
# JCPyV [1] = assay: Dose dependent inhibition of infection, flow cytometric scoring, SVG-A cells; format: cell-based, JC polyomavirus; details: for inhibition of JCPyV infection (FIG. 8C): 100 μM, SVG-A cells pre-incubated, flow cytometry
# JCPyV [2] = assay: Endocytosis assay, trypan blue quenching, confocal microscopy; format: cell-based, JC polyomavirus; details: 100 μM Retro-2, 30 μM chloropromazine; fixed at 2 h
# BKPyV [3] = assay: as above; format: cell-based, BK polyomavirus; details: 100 μM Retro-2, 100 μM nystatin; fixed at 2 h
# SV40 [4] = assay: as above; format: cell-based, simian virus 40; details: 100 μM Retro-2, 100 μM nystatin; fixed at 2 h
# CTxB [5] = format: cell-based
# BKPyV [6] = assay: ER trafficking assay, colocalization with PDI; format: cell-based, BK polyomavirus
# CTxB [7] = format: cell-based; remark: listed apart in the source
# SV40 [8] = assay: ER trafficking assay, colocalization with PDI; format: cell-based, simian virus 40
# JCPyV [9] = assay: ER trafficking assay, colocalization with PDI; format: cell-based, JC polyomavirus
# [10] = Conversion (cyclization) of Retro-2 in solution; format: physicochemical
# cells = details: cited from earlier work
# JCPyV [11] = assay: VP2 release assay; format: cell-based, JC polyomavirus; details: 100 μM Retro-2, 500 ng/mL brefeldin A; MOI 10, 10 hpi
# SV40 [12] = assay: VP2 release assay; format: cell-based, simian virus 40; details: 100 μM Retro-2, 500 ng/mL brefeldin A; MOI 10, 10 hpi
# BKPyV [13] = assay: VP2 release assay; format: cell-based, BK polyomavirus; details: 100 μM Retro-2, 500 ng/mL brefeldin A; MOI 10, 10 hpi
# SV40 [14] = assay: Time course (time of addition) experiment, Vero cells; format: cell-based, simian virus 40
# Ad5-GFP pseudovirus = format: cell-based, Adenovirus Type 5; details: Vero cells pre-treated, GFP positive cells by flow cytometry
# Stx2 = details: cited from earlier work
# SV40 [15] = assay: Multicycle growth assay and reinfection assay in established infection, Vero cells; format: cell-based, simian virus 40
# JCPyV [16] = assay: Multicycle growth assay and reinfection assay in established infection, SVG-A cells; format: cell-based, JC polyomavirus
# JCPyV [17] = assay: Time course (time of addition) experiment, SVG-A cells; format: cell-based, JC polyomavirus
# SV40 [18] = assay: Binding of labeled virus to Vero cells, flow cytometry; format: cell-based, simian virus 40; details: 100 μM, 1 h pretreatment
# BKPyV [19] = assay: Time course (time of addition) experiment, Vero cells; format: cell-based, BK polyomavirus
# BKPyV [20] = assay: Multicycle growth assay and reinfection assay in established infection, Vero cells; format: cell-based, BK polyomavirus
# SVG-A or Vero cells = format: cell-based
# Description: The viability of SVG-A or Vero cells were first tested after treatment with Retro-2^cycl. Cells were treated with Retro-2^cycl at the indicated concentrations for 72 h before viability was assessed using the CellTiter 96 AQueous One Solution Cell Proliferation Assay. As a control, cells were treated with either 0.04% DMSO or with 10% SDS. Error bars denote standard deviation.
# SV40 [21] = assay: Dose dependent inhibition of infection, flow cytometric scoring, Vero cells; format: cell-based, simian virus 40; details: Betapolyomavirus macacae, VP1 at 72 h, compared to vehicle control, read-out: calculated EC50, decrease in percentage of cells expressing VP1
# BKPyV [22] = assay: as above; format: cell-based, BK polyomavirus; details: Betapolyomavirus hominis, VP1 at 72 h, compared to vehicle control, read-out: calculated EC50, decrease in percentage of cells expressing VP1
# BKPyV [23] = assay: Binding of labeled virus to Vero cells, flow cytometry; format: cell-based, BK polyomavirus; details: 100 μM, 1 h pretreatment
# [24] = 100 μM, re-fed daily, 12 days post infection, MOI 0.01
smiles,measurement,setting,value
Cc1ccc(CNc2ccccc2C(=O)Nc2ccccc2)s1 [Retro-2^red],inhibition of JCPyV infection (FIG. 8C),JCPyV [1],significantly less active
CCc1ccc(C2Nc3ccccc3C(=O)N2c2ccccc2)s1 (stereo not drawn) [BU62382A4],potency against polyomavirus infectivity relative to Retro-2^cycl,"JCPyV [1]; preliminary SAR, ethyl instead of methyl at position 5 of thiophenyl ring",does not negatively impact potency
"CN(C)CCCN1c2ccccc2Sc2ccc(Cl)cc21 [chloropromazine, reference compound]",inhibition of endocytosis,JCPyV [2],inhibits endocytosis
"C[C@@H]1[C@H](O)[C@@H](C)/C=C/C=C/CC/C=C/C=C/C=C/C=C/C(O[C@H]2O[C@H](C)[C@@H](O)[C@H](N)[C@@H]2O)CC2O[C@](O)(CC(O)C(O)CCC(O)CC(O)CC(O)CC(=O)O[C@H]1C)CC(O)C2C(=O)O (stereo partly drawn) [nystatin, reference compound]",inhibition of endocytosis,BKPyV [3],inhibits endocytosis
same,inhibition of endocytosis,SV40 [4],inhibits endocytosis
same,inhibition of endocytosis,CTxB [5],inhibits endocytosis
Cc1ccc(/C=N/c2cccc(C(=O)Nc3ccccc3)c2)s1 [Retro-2^meta],colocalization with the ER protein PDI,BKPyV [6],significant colocalization
same,inhibition of JCPyV infection (FIG. 8C),JCPyV [1],significantly less active
same,colocalization with the ER protein PDI,CTxB [7],significant colocalization
same,colocalization with the ER protein PDI,SV40 [8],significant colocalization
same,colocalization with the ER protein PDI,JCPyV [9],significant colocalization
"Cc1ccc(/C=N/c2ccccc2C(=O)Nc2ccccc2)s1 [Retro-2, 2-(((5-methylthiophen-2-yl)methylene)amino)-N-phenylbenzamide]",conversion to Retro-2^cycl in solution,[10],rapidly converts
"C[C@H]1CCC/C=C/[C@@H]2C[C@H](O)C[C@H]2[C@H](O)/C=C/C(=O)O1 [brefeldin A, reference compound]",colocalization with the ER protein PDI,BKPyV [6],significantly reduces colocalization
same,cytotoxicity to cells,cells,highly cytotoxic
same,reduction in infectivity,"JCPyV [1]; 20 ng/mL, SVG-A cells, positive control",96%
same,cells exposing VP2,JCPyV [11],significant reduction in the number of cells with VP2 exposed
same,colocalization with the ER protein PDI,CTxB [7],significantly reduces colocalization
same,cells exposing VP2,SV40 [12],significant reduction in the number of cells with VP2 exposed
same,colocalization with the ER protein PDI,SV40 [8],"reduced, although this reduction was not significant"
same,cells exposing VP2,BKPyV [13],significant reduction in the number of cells with VP2 exposed
same,colocalization with the ER protein PDI,JCPyV [9],significantly reduces colocalization
"Cc1ccc(C2Nc3ccccc3C(=O)N2c2ccccc2)s1 (stereo not drawn) [Retro-2^cycl, 2-(5-methylthiophen-2-yl)-3-phenyl-2,3-dihydroquinazolin-4(1H)-one]",infectivity regained when compound is added late,SV40 [14],greater than 80%
same,time of addition after which most of the inhibitory effect is lost,SV40 [14],> 12 h
same,time of addition at which infectivity is still significantly reduced,SV40 [14],up to 4 hours post infection (hpi)
same,inhibition of Ad5-GFP transduction,Ad5-GFP pseudovirus,did not inhibit transduction
same,inhibition of endocytosis,JCPyV [2],does not inhibit endocytosis
same,protection of cells from toxin,Stx2,able to protect cells
same,inhibition of viral spread (percentage of infected cells vs vehicle control),SV40 [15]; [24],84%
same,infectious virions in tissue culture supernatant (reinfection of naive cells),SV40 [15]; cultures treated with 100 μM,significantly less infectious virions
same,inhibition of viral spread (percentage of infected cells vs vehicle control),JCPyV [16]; [24],90.5%
same,infectious virions in tissue culture supernatant (reinfection of naive cells),JCPyV [16]; cultures treated with 100 μM,significantly less infectious virions
same,cytopathic effect in JCV infected SVG-A cells,"JCPyV [16]; phase contrast microscopy at 15 days post infection, vs DMSO",reduces cytopathic effect
same,inhibition of endocytosis,BKPyV [3],does not inhibit endocytosis
same,colocalization with the ER protein PDI,BKPyV [6],significantly reduces colocalization
same,inhibition of endocytosis,SV40 [4],does not inhibit endocytosis
same,infectivity regained when compound is added late,JCPyV [17],greater than 80%
same,time of addition after which most of the inhibitory effect is lost,JCPyV [17],> 14 h
same,time of addition at which infectivity is still significantly reduced,JCPyV [17],up to 4 hours post infection (hpi)
same,binding to cells compared to vehicle control,SV40 [18],slight decreases
same,infectivity regained when compound is added late,BKPyV [19],greater than 80%
same,time of addition after which most of the inhibitory effect is lost,BKPyV [19],> 12 h
same,time of addition at which infectivity is still significantly reduced,BKPyV [19],up to 4 hours post infection (hpi)
same,inhibition of viral spread (percentage of infected cells vs vehicle control),BKPyV [20]; [24],89%
same,infectious virions in tissue culture supernatant (reinfection of naive cells),BKPyV [20]; cultures treated with 100 μM,significantly less infectious virions
same,EC50,"JCPyV [1]; JC polyomavirus, SVG-A cells, VP1 at 72 h, compared to vehicle control, read-out: calculated EC50, decrease in percentage of cells expressing VP1",28.4 µM
same,cells exposing VP2,JCPyV [11],significant reduction of cells exposing VP2
same,cell viability at effective doses,SVG-A or Vero cells,do not negatively affect cell viability
same,colocalization with the ER protein PDI,CTxB [7],significantly reduces colocalization
same,inhibition of endocytosis,CTxB [5],does not inhibit endocytosis
same,EC50,SV40 [21],58.6 µM
same,EC50,BKPyV [22],61.2 µM
same,cells exposing VP2,SV40 [12],significant reduction of cells exposing VP2
same,colocalization with the ER protein PDI,SV40 [8],"reduced, although this reduction was not significant"
same,cells exposing VP2,BKPyV [13],significant reduction of cells exposing VP2
same,binding to cells compared to vehicle control,BKPyV [23],slight decreases
same,co-localization of JCV-633 with Rab5 endosomes,JCPyV [9],increases co-localization
same,colocalization with the ER protein PDI,JCPyV [9],significantly reduces colocalization

# Reference: patent publication US9695156B2, “Compounds for the treatment and prevention of infections” (Brown University, priority 2012, dated 2017)
